Measured values published in US11806393B2, “Flavivirus peptide sequences, epitopes, and methods and uses thereof” (priority 2017, dated 2023).

Tests used:
Type in all cases: cell-based, mouse
[1] = tested on: CD44+ CD4+ T cells; assay: ICS, ZIKV SD001-infected Ifnar1-/- HLA-DRB1*0101 mice; settings: for cytokines produced by ZIKV-primed CD4+ T cells on peptide stimulation: ZIKV SD001, day 7; for identification as Th1 epitope (IFNγ, TNF, IL-2 ICS): ZIKV-primed CD4+ T cells
Description: Ifnar1^−/− HLA-DRB1*0101 mice were infected retro-orbitally with 1×10^2 FFU of ZIKV strain SD001 for 7 days. Splenocytes were stimulated in vitro with the indicated ZIKV-derived HLA-DRB1*0101-binding peptides for 6 h, and the frequency of CD44^+ CD4^+ T cells producing IFNγ, TNF, or IFNγ plus TNF (A), IL-2 (B), and IL-17 (C) were detected using the ICS assay. Data represent the mean±s.e.m. of four independent experiments (n=3-5 mice/experiment; total 16 mice). *P<0.05, **P<0.01, ***P<0.001, ****P<0.0001 by two-tailed Mann-Whitney test. Negative and positive refer to cells incubated alone or with PMA/ionomycin, respectively. […]
(§1) For the 30-peptide epitope screen, 5-week-old female or male mice were infected retro-orbitally (r.o.) with either 1×10^2 focus-forming units (FFU) of ZIKV SD001 or 2×10^3 FFU of DENV2 S221 in 200 μl of 10% fetal bovine serum in phosphate-buffered saline (FBS/PBS). Seven days after infection, spleens were removed and single-cell splenocyte suspensions were prepared. A total of 1×10^6 splenocytes was plated in each well of a 96-well U-bottom plate and stimulated with individual peptides (20 μg crude peptide per well) for 6 h. One hour into the incubation, brefeldin A (GolgiPlug, BD Biosciences) was added to the cells. Positive and negative controls were splenocytes stimulated with phorbol-12-myristate-13-acetate (PMA, 0.1 μg/ml) and ionomycin (1 μg/ml) or incubated alone, respectively.
(§2) After incubation of splenocytes with peptides or PMA/ionomycin, cells were harvested, washed, and incubated with Fc Block (CD16/CD32 mAb 2.4G2, BD Biosciences), followed by staining with fixable Live/Dead blue viability stain (Life technologies) and the following antibodies: PerCP-Cy5.5-conjugated anti-CD3 mAb (clone 145-2C11, Tonbo), APC-eFluor780-conjugated anti-CD4 mAb (clone GK1.5, Invitrogen), Brilliant Violet (BV) 785-conjugated anti-CD44 mAb (clone IMT, Biolegend), PE-conjugated anti-CD11a (clone M17/4, Biolegend), BV605-conjugated anti-CD49d (clone 9C10(MFR4.B, Biolegend), PE-conjugated anti-CD25 mAb (clone PC61, Biolegend), PE-conjugated or biotin-conjugated anti-CD185 mAb (CXCR5, clone SPRC15; Invitrogen), BV 605-conjugated anti-[…] mAb (PD1, clone 29F.1A12; Biolegend), and/or BV 421-conjugated streptavidin (#405225, Biolegend). Cells were then fixed and permeabilized using Cytofix/Cytoperm solution (BD Biosciences), followed by staining with FITC-conjugated anti-IFNγ mAb (clone XMG1.2, Tonbo), Alexa Fluor 700- or APC-conjugated anti-TNF mAb (clone MP6-XT22, eBioscience), PE-, BV 421-, or BV 711-conjugated anti-IL-2 mAb (clone JES6-5H4, Biolegend), APC-conjugated anti-IL-4 mAb (clone 11B11, Biolegend), PE-conjugated anti-IL-5 mAb (clone TRFK5, eBioscience), BV510-conjugated anti-IL-17A mAb (clone 17B7, eBioscience), and/or Alexa Fluor 700-conjugated anti-FoxP3 mAb (clone FJK-16S, eBioscience). Data were collected using an LSR Fortessa flow cytometer (BD Biosciences) and analyzed using FlowJo software X 10.0.7 (Tree Star).

[2] = tested on: CD44+ CD4+ T cells; assay: ICS, DENV2 S221-infected Ifnar1-/- HLA-DRB1*0101 mice; settings: for cross-reactive response by DENV2-primed CD4+ T cells / cytokines produced by DENV2-primed CD4+ T cells on peptide stimulation: DENV2 S221, day 7
Description: Ifnar1^−/− HLA-DRB1*0101 mice were infected intraperitoneally with 2×10^3 FFU of DENV2 strain […] for 7 days. Splenocytes were stimulated in vitro with the indicated ZIKV-derived HLA-DRB1*0101-binding peptides for 6 h. The frequency of CD44^+ CD4^+ T cells producing IFNγ, TNF, or IFNγ plus TNF (A) or IL-2 (B) were detected using the ICS assay. Data represent the mean±s.e.m. of three independent experiments (n=3-4 mice/experiment; total 10 mice). *P<0.05, **P<0.01, ***P<0.001, ****P<0.0001 by two-tailed Mann-Whitney test. Negative and positive refer to cells incubated alone or with PMA/ionomycin, respectively.
as §1, §2

[3] = tested on: CD44+ CD4+ T cells; assay: ICS, naive or DENV2-immune Ifnar1-/- HLA-DRB1*0101 mice challenged with ZIKV; settings: for CD4+ T cell response to peptide: DENV2-immune mice; for CD4+ T cell response to peptide / expansion of peptide-reactive CD4+ T cells: day 7 after ZIKV challenge; for expansion of peptide-reactive CD4+ T cells: naive mice
Source text: Ifnar1−/−HLA-DRB1*0101 mice were primed intraperitoneally with 2×103 FFU of DENV2 S221 for 4 weeks. Naïve mice and DENV2-immune mice were challenged retro-orbitally with 1×10^4 FFU of ZIKV strain SD001 for 3 or 7 days. Splenocytes were stimulated in vitro with the indicated ZIKV-specific and DENV2/ZIKV-cross-reactive epitopes. The frequency of CD44+ CD4+ T cells producing IFNγ, IFNγ plus TNF, or IL-2 were detected using the ICS assay. (E) The combined data for positive peptide responses in (FIGS. 27A-27D). Numbers in parentheses indicate the number of positive peptides. Data represent the mean±s.e.m. of three or four independent experiments, with a total of 9 mice/group for A and C, 14/group for B, and 15/group for D. *P<0.05, **P<0.01, ***P<0.001, ****P<0.0001 by two-tailed Mann-Whitney test. Negative and positive refer to cells incubated alone or with PMA/ionomycin, respectively.
Five-week-old female or male mice were inoculated intraperitoneally (i.p.) with 2×10^3 FFU of DENV2 S221. […] Positive and negative controls were included in all experiments.
as §2

[4] = tested on: CD8+ T cells; assay: IFNγ ELISPOT, ZIKV-infected Ifnar-/- HLA-B*0702 transgenic mice; settings: HLA-B*0702 mice; for SFC/10^6 CD8+ T cells, MR766: 7 days after 1×10^2 FFU ZIKV MR766
Description: (§3) Two ZIKV strains, MR766 (Uganda, 1947) and FSS13025 (Cambodia, 2010), were obtained from the World Reference Center for Emerging Viruses and Arboviruses (WRCEVA). The mouse-adapted DENV2 strain S221 is a triple-plaque purified clone derived from DENV2 D2S1038. Both ZIKV and DENV2 were amplified in C6/36 mosquito cells, and viral titers were measured using baby hamster kidney (BHK)-21 cell-based focus forming assay (FFA). For epitope screening, 5-week old mice (female or male) were infected retro-orbitally (R.O.) with either 1×102 FFU of ZIKV FSS13025 or ZIKV MR766, or 2×10^4 FFU of DENV2 S221 in 200 μl 10% FBS/PBS. Seven days after infection, CD8^+ T cells were isolated from splenocytes and used for ELISPOT assay, while the splenocytes were directly used for ICS assay. Additionally, 5-week old mice were inoculated I.P. with 2×10^3 FFU of DENV2 S221 for 4 weeks.
(§4) CD8^+ T cells were isolated from splenocytes using magnetic bead positive selection (Miltenyi Biotec, Germany) 7 days after virus infection. 2×10^5 CD8^+ T cells were stimulated with 1×10^5 LPS-blasts loaded with 10 μg of individual peptide in 96-well flat-bottom plates (IMMOBILON™-P; Millipore, Bedford, Mass.) that were coated with anti-IFNγ mAb (clone AN18; Mabtech, Stockholm, Sweden) in triplicate. Concanavalin A (ConA) was used as positive control. After 20 hours of incubation, biotinylated anti-mouse IFNγ mAb (R4-6A2; Mabtech), followed by ABC peroxidase (Vector Laboratories, Burlingame, Calif., USA) and then 3-amino-9-ethylcarbazole (Sigma-Aldrich, St. Louis, Mo., USA) were added into the wells. […] A peptide inducing a magnitude of >500 SFCs/10^6 CD8^+ T cells was considered as an immunodominant peptide.
Two independent experiments performed in triplicate were averaged and the error bars represent the SEM. The data are expressed as the mean number of spot forming cells (SFC) per 10^6 CD8^+ T cells. The criteria for positivity were net SFC per 10^6 cells of >20, and a stimulation index of >2.0 when compared with the negative control. Dotted lines represent the cutoff value. * Indicates a positive response. […] ConA denotes Concanavalin A.

[5] = tested on: CD8+ T cells; assay: IFNγ ELISPOT, DENV2 S221-infected Ifnar-/- HLA-B*0702 transgenic mice; settings: HLA-B*0702 mice, 7 days after 2×10^4 FFU DENV2 S221
Description: as §3, §4
The following results are with respect to FIG. 14A and FIG. 14B, where Ifnar^−/− HLA-B*0702 transgenic mice were infected R.O. with 2×10^4 FFU of DENV2 strain S221 for 7 days. CD8^+ T cells isolated from splenocytes were stimulated with each of the 37 ZIKV epitopes identified via IFNγELISPOT to perform (FIG. 14A) IFNγELISPOT and (FIG. 14B) ICS assay. Data represent the average of two independent IFNγELISPOT experiments and two independent ICS experiments (n=7 mice) and are expressed as mean±SEM. Dotted line corresponds to the cutoff value. *, P<0.05.

[6] = 7 days after ZIKV SD001, 6 h stimulation
[7] = 7 days after DENV2 S221, 6 h stimulation

| Sequence | % CD4+ CD44+ T cells (ZIKV) INFγ+ [1, 6] | % CD4+ CD44+ T cells (ZIKV) INFγ+ TNFα+ [1, 6] | cytokines produced by ZIKV-primed CD4+ T cells on peptide stimulation [1] | identification as Th1 epitope (IFNγ, TNF, IL-2 ICS) [1] | CD4+ T cell response to peptide [3] | expansion of peptide-reactive CD4+ T cells [3] | SFC/10^6 CD8+ T cells, MR766 [4] | SFC/10^6 CD8+ T cells, S221 [5] | further results |
| --- | --- | --- | --- | --- | --- | --- | --- | --- | --- |
| RAIWYMWLGARFLEP [NS5222-236] | 0.607% | 0.333% | stimulated IFNγ, TNF, and IL-2 production | Th1 epitopes | increased responses | significant expansion | – | – | % CD4+ CD44+ T cells (ZIKV) IL-2+ [1, 6]: 0.21%; % CD4+ CD44+ T cells (ZIKV) TNFα+ [1, 6]: 0.571%; % CD4+ CD44+ T cells (DENV) IL-2+ [2, 7]: 0.643%; % CD4+ CD44+ T cells (DENV) INFγ+ [2, 7]: 0.82%; % CD4+ CD44+ T cells (DENV) INFγ+ TNFα+ [2, 7]: 1.451%; % CD4+ CD44+ T cells (DENV) TNFα+ [2, 7]: 0.8%; cross-reactive response by DENV2-primed CD4+ T cells [2]: elicited cross-reactive responses; cytokines produced by DENV2-primed CD4+ T cells on peptide stimulation [2]: induced cells producing IFNγ, TNF, and IL-2; CD4+ T cell response (IFNγ, IL-2, IFNγ plus TNF) ([3]; DENV2-primed mice, day 3 after ZIKV challenge): strong response |
| SPNKYVVNSSTA [FSS/MR-NS4B210-220] | – | – | – | – | – | – | 195 SFC/10^6 CD8+ T cells | 49 SFC/10^6 CD8+ T cells | – |
| APTQGSASSL [FSS/MR-NS561-70] | – | – | – | – | – | – | 98 SFC/10^6 CD8+ T cells | 47 SFC/10^6 CD8+ T cells | – |
| GAAFKSLFGGMSWFS [E450-464] | 0.183% | 0.078% | stimulated IFNγ plus TNF production | Th1 epitopes | increased responses | – | – | – | – |
| GAAFGVMEALGTLPG [NS3601-NS4A12] | 0.203% | 0.102% | stimulated IFNγ plus TNF production | Th1 epitopes | increased responses | significant expansion | – | – | – |
| GPMPVTHASA [FSS/MR-NS3427-436] | – | – | – | – | – | – | 204 SFC/10^6 CD8+ T cells | 136 SFC/10^6 CD8+ T cells | SFC/10^6 CD8+ T cells, FSS13025 ([4]; 7 days after 1×10^2 FFU ZIKV FSS13025): 140 SFC/10^6 CD8+ T cells |
| LALIAAFKVRPALLV [NS2A66-80] | 0.167% | 0.058% | stimulated IFNγ plus TNF production | Th1 epitopes | increased responses | significant expansion | – | – | % CD4+ CD44+ T cells (DENV) INFγ+ [2, 7]: 0.39%; % CD4+ CD44+ T cells (DENV) INFγ+ TNFα+ [2, 7]: 0.343%; % CD4+ CD44+ T cells (DENV) TNFα+ [2, 7]: 0.199%; cross-reactive response by DENV2-primed CD4+ T cells [2]: elicited cross-reactive responses; cytokines produced by DENV2-primed CD4+ T cells on peptide stimulation [2]: induced IFNγ-plus TNF-producing cells |
| KPTVDIEL [FSS/MR-E38-45] | – | – | – | – | – | – | 103 SFC/10^6 CD8+ T cells | 51 SFC/10^6 CD8+ T cells | – |
